From patent US12441718B2, “Selective angiotensin II compounds” (VICORE PHARMA AB, priority 2021, dated 2025) come the findings set out here.

Several values for one entry are separate records, joined by “and”; a condition that tells them apart may be missing. Equal entries are not always repeated. Where two headings read alike, the source gives them in different places.

A short description of series [1]: Metabolic stability in pooled human liver microsomes. In kind it is in vitro ADME. The note with it: pooled human liver microsomes 0.5 mg/mL, 1 μM test compound, 37° C., * rows = mean of two runs; for half-life at 1 μM: human, pooled human liver microsomes. The method, then: Pooled human liver microsomes in PBS at a concentration of 0.5 mg/mL was incubated with or without 1 mM NADPH for 70 min at 37° C. Test compound was added after 10 minutes to a final concentration of 1 μM. Samples were withdrawn at 0, 5, 15 and 60 minutes and added to test tubes containing acetonitrile, to stop the reaction, and with terfenadine, used as internal standard. After centrifugation at 10 000×g for 5 minutes the supernatant was diluted 1:1 with 1% formic acid. Samples were separated on a reverse phase column and detected by triple quadrupole MSMS (Agilant model 6540). The concentration of the parent compound at the different time points was measured with an external standard curve using terfenadine as internal standard and the initial metabolic rate in the presence or absence of NADPH calculated.
(Liver microsomes are vesicles of endoplasmic reticulum, rich in cytochrome P450 enzymes.)

Series [2] deals with T1, human recombinant AT2 receptor (Homo sapiens, UniProt P50052).
T1 construct: purchased Eurofins ITEM26 (protocol number)
T1 sequence (P50052 1-363): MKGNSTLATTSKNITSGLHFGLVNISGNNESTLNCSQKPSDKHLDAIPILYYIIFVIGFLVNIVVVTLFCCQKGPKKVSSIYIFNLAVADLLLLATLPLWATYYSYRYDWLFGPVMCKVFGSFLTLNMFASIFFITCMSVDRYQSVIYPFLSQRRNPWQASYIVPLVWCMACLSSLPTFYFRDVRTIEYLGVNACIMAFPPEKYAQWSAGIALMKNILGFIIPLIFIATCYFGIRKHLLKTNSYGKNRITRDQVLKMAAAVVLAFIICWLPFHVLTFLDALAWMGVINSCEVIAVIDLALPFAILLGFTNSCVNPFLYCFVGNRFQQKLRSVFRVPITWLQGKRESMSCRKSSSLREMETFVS
The series is described as follows: Binding to AT2 receptor, radiometric scintillation assay (Eurofins ITEM26). The note with it: for Ki: seven-point dose-response curve.

Where [3] appears, read: with 1 mM NADPH, read-out: T1/2, + NaDPH.
Setting [4] is: without NADPH, read-out: T1/2, no NaDPH.
Setting [5] is: ligand 125I CGP 42112A, * rows = mean of runs.
Setting [6] is: test compounds at 1, 10, 100 and 1000 nM, ligand 125I CGP 42112A, * rows = mean of runs, read-out: AT2 GraFit IC50.

Broadly, the Ki is the dissociation constant of the complex between target and ligand, obtained from inhibition or displacement. Broadly, the IC50 is the point on the concentration scale where inhibition reaches its midpoint.

Regarding `CC(C)Cc1ccc(S(=O)(=O)Nc2ncccn2)c(-c2ccc(Cn3ccnc3C(C)(C)O)cc2)c1` [Example 15, 4′-((2-(2-Hydroxypropan-2-yl)-1H-imidazol-1-yl)methyl)-5-isobutyl-N-(pyrimidin-2-yl)-[1,1′-biphenyl]-2-sulfonamide], the half-life at 1 μM in series [1] (setting [3]) and in series [1] (setting [4]) was more than 1 h each time.

On to `CC(C)Cc1cc(-c2ccc(Cn3ccnc3C(C)(C)C)cc2)c(S(=O)(=O)Nc2ncccn2)s1` [Example 16, 3-(4-((2-(tert-Butyl)-1H-imidazol-1-yl)methyl)phenyl)-5-isobutyl-N-(pyrimidin-2-yl)thiophene-2-sulfonamide], for which the half-life at 1 μM in series [1] (setting [3]) and in series [1] (setting [4]) was more than 1 h in each case.

`CC(C)Cc1ccc(S(=O)(=O)Nc2ncccn2)c(-c2ccc(Cn3ccnc3C(C)(C)C)cc2)c1` [Example 17, 4′-((2-(tert-Butyl)-1H-imidazol-1-yl)methyl)-5-isobutyl-N-(pyrimidin-2-yl)-[1,1′-biphenyl]-2-sulfonamide]: the half-life at 1 μM in series [1] (setting [3]) and in series [1] (setting [4]) was more than 1 h throughout.

`COc1cnc(NS(=O)(=O)c2ccc(CC(C)C)cc2-c2ccc(Cn3ccnc3C(C)(C)C)c(F)c2)nc1` [Example 31, 4′-((2-(tert-Butyl)-1H-imidazol-1-yl)methyl)-3′-fluoro-5-isobutyl-N-(5-methoxy-pyrimidin-2-yl)-[1,1′-biphenyl]-2-sulfonamide]: in series [2] (setting [5]), the Ki is 1.21 nM and 1.84 nM and 1.53 nM. Further, in series [2] (setting [6]), the IC50 is 2.43 nM and 3.68 nM and 3.06 nM. Besides, the half-life at 1 μM in series [1] (setting [3]) is 0.783 h; in series [1] (setting [4]), more than 1 h. The “T1/2, + NaDPH” value in series [1] (with 1 mM NADPH) stood at 0.583 h; in series [1] (with 1 mM NADPH, listed as Example 31*), 0.683 h.

With `CC(C)Cc1ccc(S(=O)(=O)Nc2ccsn2)c(-c2ccc(Cn3ccnc3C(C)(C)C)cc2)c1` [Example 33, 4′-((2-(tert-Butyl)-1H-imidazol-1-yl)methyl)-5-isobutyl-N-(isothiazol-3-yl)-[1,1′-biphenyl]-2-sulfonamide], the Ki in series [2] (setting [5]) was 1.13 nM and 7.18 nM and 4.16 nM. For the same compound, in series [2] (setting [6]), the IC50 was 2.25 nM and 14.4 nM and 8.33 nM. Moreover, the half-life at 1 μM in series [1] (setting [3]) was 0.2 h; in series [1] (setting [4]), more than 1 h. Further, the “T1/2, + NaDPH” value was found to be 0.217 h in series [1] (with 1 mM NADPH) and 0.208 h in series [1] (with 1 mM NADPH, listed as Example 33*).

`COc1cc(NS(=O)(=O)c2ccc(CC(C)C)cc2-c2ccc(Cn3ccnc3C(C)(C)C)cc2)nc(OC)n1` [Example 34, 4′-((2-(tert-Butyl)-1H-imidazol-1-yl)methyl)-N-(2,6-dimethoxypyrimidin-4-yl)-5-isobutyl-[1,1′-biphenyl]-2-sulfonamide]: in series [2] (setting [5]), the Ki was 38.3 nM and 24.5 nM and 31.4 nM. In addition, the IC50 in series [2] (setting [6]) is 76.6 nM and 49 nM and 62.8 nM. Besides, the half-life at 1 μM in series [1] (setting [3]) was 0.283 h; in series [1] (setting [4]), more than 1 h. The “T1/2, + NaDPH” value was determined as 0.183 h in series [1] (with 1 mM NADPH) and 0.233 h in series [1] (with 1 mM NADPH, listed as Example 34*).

As for `COc1cnc(NS(=O)(=O)c2ccc(CC(C)C)cc2-c2ccc(Cn3ccnc3C(C)(C)C)cc2)nc1` [Example 36, 4′-((2-(tert-Butyl)-1H-imidazol-1-yl)methyl)-5-isobutyl-N-(5-methoxypyrimidin-2-yl)-[1,1′-biphenyl]-2-sulfonamide], in series [2] (setting [5]), the Ki amounted to 5.99 nM. Besides, the IC50 in series [2] (setting [6]) worked out at 12 nM. Further, the half-life at 1 μM in series [1] (setting [3]) was 0.7 h; in series [1] (setting [4]), more than 1 h.

In the case of `Cc1nccn1Cc1ccc(-c2cc(CC(C)C)ccc2S(=O)(=O)Nc2ncccn2)cc1` [Example 37, 5-Isobutyl-4′-((2-methyl-1H-imidazol-1-yl)methyl)-N-(pyrimidin-2-yl)-[1,1′-biphenyl]-2-sulfonamide], in series [2] (setting [5]), the Ki is 0.58 nM. Moreover, the IC50 in series [2] (setting [6]) was determined as 1.16 nM. The half-life at 1 μM in series [1] (setting [3]) and in series [1] (setting [4]) was more than 1 h each time.

Turning to `CC(C)Cc1ccc(S(=O)(=O)Nc2ncccn2)c(-c2ccc(Cn3ccnc3)cc2)c1` [Example 38, 4′-((1H-Imidazol-1-yl)methyl)-5-isobutyl-N-(pyrimidin-2-yl)-[1,1′-biphenyl]-2-sulfonamide], the Ki in series [2] (setting [5]) worked out at 1.38 nM. In addition, in series [2] (setting [6]), the IC50 worked out at 2.76 nM. The results for the half-life at 1 μM in series [1] (setting [3]) and in series [1] (setting [4]) were 0.967 h and more than 1 h, respectively.

Turning to `CC(C)Cc1ccc(S(=O)(=O)Nc2ncccn2)c(-c2ccc(Cn3ccnc3C(C)C)cc2)c1` [Example 39, 5-Isobutyl-4′-((2-isopropyl-1H-imidazol-1-yl)methyl)-N-(pyrimidin-2-yl)-[1,1′-biphenyl]-2-sulfonamide], the half-life at 1 μM in series [1] (setting [3]) was 0.95 h; in series [1] (setting [4]), more than 1 h.

In the case of `CCc1nccn1Cc1ccc(-c2cc(CC(C)C)ccc2S(=O)(=O)Nc2ncccn2)cc1` [Example 40, 4′-((2-Ethyl-1H-imidazol-1-yl)methyl)-5-isobutyl-N-(pyrimidin-2-yl)-[1,1′-biphenyl]-2-sulfonamide], the values for the half-life at 1 μM in series [1] (setting [3]) and in series [1] (setting [4]) were 0.75 h and more than 1 h, respectively.

Take `CC(C)Cc1ccc(S(=O)(=O)Nc2ncccn2)c(-c2ccc(Cn3ccnc3C3CC3)cc2)c1` [Example 41, 4′-((2-Cyclopropyl-1H-imidazol-1-yl)methyl)-5-isobutyl-N-(pyrimidin-2-yl)-[1,1′-biphenyl]-2-sulfonamide]: the half-life at 1 μM in series [1] (setting [3]) and in series [1] (setting [4]) was more than 1 h each time.

`CC(C)Cc1ccc(S(=O)(=O)Nc2ncccn2)c(-c2ccc(Cn3ccnc3C3CC3)c(F)c2)c1` [Example 42, 4′-((2-Cyclopropyl-1H-imidazol-1-yl)methyl)-3′-fluoro-5-isobutyl-N-(pyrimidin-2-yl)-[1,1′-biphenyl]-2-sulfonamide]: the half-life at 1 μM in series [1] (setting [3]) and in series [1] (setting [4]) was more than 1 h in each case.

For the compound `CC(C)Cc1cc(-c2ccc(Cn3ccnc3C(C)(C)C)c(F)c2)c(S(=O)(=O)Nc2ncccn2)s1` [Example 43, 3-(4-((2-(tert-Butyl)-1H-imidazol-1-yl)methyl)-3-fluorophenyl)-5-isobutyl-N-(pyrimidin-2-yl)thiophene-2-sulfonamide], in series [2] (setting [5]), the Ki is 0.3 nM. For the same compound, the IC50 in series [2] (setting [6]) came to 0.6 nM. Also, the half-life at 1 μM in series [1] (setting [3]) and in series [1] (setting [4]) was more than 1 h throughout.

For `CC(C)Cc1cc(-c2ccc(Cn3ccnc3C(C)C)c(F)c2)c(S(=O)(=O)Nc2ncccn2)s1` [Example 46, 3-(3-Fluoro-4-((2-isopropyl-1H-imidazol-1-yl)methyl)phenyl)-5-isobutyl-N-(pyrimidin-2-yl)thiophene-2-sulfonamide], the Ki in series [2] (setting [5]) was 0.33 nM. Besides, in series [2] (setting [6]), the IC50 stood at 0.65 nM. For the same compound, the half-life at 1 μM in series [1] (setting [3]) and in series [1] (setting [4]) was more than 1 h throughout.

Regarding `CC(C)Cc1cc(-c2ccc(Cn3ccnc3)c(F)c2)c(S(=O)(=O)Nc2ncccn2)s1` [Example 48, 3-(4-((1H-Imidazol-1-yl)methyl)-3-fluorophenyl)-5-isobutyl-N-(pyrimidin-2-yl)thiophene-2-sulfonamide], the half-life at 1 μM in series [1] (setting [3]) and in series [1] (setting [4]) was more than 1 h throughout.

With `Cc1nccn1Cc1ccc(-c2cc(CC(C)C)ccc2S(=O)(=O)Nc2ncccn2)cc1F` [Example 53, Potassium ((3′-fluoro-5-isobutyl-4′-((2-methyl-1H-imidazol-1-yl)methyl)-[1,1′-biphenyl]-2-yl)sulfonyl)(pyrimidin-2-yl)amide], the 50% inhibitory concentration (IC50) in series [2] (AT2 GraFit IC50, value in parentheses after <0.3, value printed in parentheses behind the bound <0.3) was 0.25 nM; in series [2] (setting [6]), less than 0.3 nM.
